Measured values as given in patent EP4813381A1, “PHARMACEUTICAL USE OF GUAIANE SESQUITERPENE DERIVATIVE” (Nanjing University Of Chinese Medicine, priority 2023, dated 2025).

Key:
[1] = test system: Human keratinocytes (Hacat); assay: Hyaluronic acid and hyaluronidase levels in UVB-irradiated human keratinocytes; type: cell-based; details: UVB 90 mJ/cm^2, 24 h
Experimental: Human keratinocytes (Hacat) were cultured routinely in DMEM medium containing 10% FBS within a 5% CO2 incubator.

Hepa1-6 cells = type: in vivo; details: Hepa1-6 xenograft, male C57BL/6 mice, compound 20 alone, dose 1 (head µmol/kg/day; text 1 mg/kg/day), intraperitoneal daily, 2 weeks
Experimental: Hepa1-6 cells were cultured and expanded in vitro. An appropriate amount of cells in the logarithmic growth phase was resuspended in a mixture of serum-free DMEM medium and Matrigel (1:1). Under sterile conditions, prepare a cell suspension at 2.5 × 10^6 cells/100 µL. Using a syringe, inject 100 µL of the cell suspension subcutaneously into the left forelimb axilla of male C57BL/6 mice. […]. […] During the treatment period, mouse body weight and tumor diameter were measured daily. At the end of the experiment, mice were euthanized by cervical dislocation, and tumors were removed and weighed. Tumor volume (TV) was calculated using the formula: TV = 1/2 × a × b^2, where a represents the longest diameter of the tumor and b represents the shortest diameter.

MDSCs and T cells = assay: T cell proliferation in a co-culture model of MDSCs and T cells (flow cytometry); type: cell-based, mice; details: MDSCs treated with 1 µM compound for 12 h, 48 h co-culture with T cells (1:1), compared to the control group
Experimental: Under sterile conditions, the tibia was removed, both ends of the bone were cut, and bone marrow was repeatedly flushed into a 15 mL centrifuge tube using a 1 mL syringe filled with culture medium. Centrifuge at 1600 rpm for 5 min to collect bone marrow cells. […] The spleen cell suspension was then transferred into a 15 mL centrifuge tube. Centrifuge at 1600 rpm for 5 min to collect T cells. Wash twice with 1×PBS. Resuspend the centrifuged T cells in 1 mL PBS and add 1 mL of 10 µM CFDA-SE solution. Incubate at room temperature for 8 min. […] After drug administration, collect MDSC cells into centrifuge tubes. Centrifuge at 1600 rpm for 5 min, remove supernatant, resuspend in 1 mL fresh medium, and plate. Add 1 mL stimulated activated T cells (1:1 ratio) for 48 h co-culture. After incubation, collect cells into centrifuge tubes, wash twice with PBS, and incubate with Fc antibody at room temperature in the dark for 10 min. Add CD3-labeled flow cytometry antibody and incubate at 4 °C in the dark for 30 min. After incubation, wash cells with PBS, resuspend in 300 µL PBS, and analyze by flow cytometry.

4T1 cells = type: in vivo, BALB/c mice; details: 4T1, oral 40 µmol/kg/day, 3 weeks
Experimental: 4T1 cells were cultured and expanded in vitro. […] A 100 µL aliquot of this suspension was injected subcutaneously into the left forelimb axilla of female BALB/c mice. […] Daily oral administration was performed for 3 weeks. During the treatment period, mouse body weight and tumor diameter were measured daily. At the end of the experiment, mice were euthanized by cervical dislocation, and tumors were removed for weighing. Tumor volume (TV) was calculated using the formula: TV = 1/2 × a × b^2, where a represents the longest diameter of the tumor and b represents the shortest diameter.

[2] = test system: MC903-induced atopic dermatitis (AD); assay: MC903-induced ear atopic dermatitis mouse model, oral Compound 20: dermatitis score, ear thickness, serum IgE; details: for IgE: serum, AD mice

C=C1C(=O)O[C@@H]2[C@@H]3[C@]4(CC[C@@]3(C)O)C[C@]4(C)CC[C@@H]12 [compound 1]
Hyaluronic acid ([1]; 0.01 µM): 8.73 ± 1.62 ng/mL
Hyaluronidase ([1]; 0.01 µM): 124.41 ± 16.49 ng/mL
Hyaluronic acid ([1]; 0.1 µM): 14.17 ± 1.30 ng/mL
Hyaluronidase ([1]; 0.1 µM): 88.07 ± 10.17 ng/mL
Hyaluronic acid ([1]; 1 µM): 19.51 ± 1.87 ng/mL
Hyaluronidase ([1]; 1 µM): 56.03 ± 5.53 ng/mL
Hyaluronic acid ([1]; 10 µM): 24.82 ± 1.13 ng/mL
Hyaluronidase ([1]; 10 µM): 37.73 ± 11.49 ng/mL

CN(C)C[C@@H]1C(=O)O[C@H]2[C@H]1CC[C@@]1(C)C[C@]13CC[C@@](C)(O)[C@H]23 [compound 20]
Tumor Inhibition Rate (%) (Hepa1-6 cells): 72.37%
Tumor weight (Hepa1-6 cells): 0.12 ± 0.09 g
T-cell proliferation rate (%) (MDSCs and T cells): + (T-cell proliferation rate within the 0-20% range compared to the control group)
antitumor effects (4T1 cells): no significant antitumor effects
atopic dermatitis score ([2]; oral 0.1 mg/kg, Day 1): 0.00±0.00
ear thickness ([2]; oral 0.1 mg/kg, Day 1): 0.20±0.00 mm
atopic dermatitis score ([2]; oral 0.1 mg/kg, Day 3): 0.67±0.21
ear thickness ([2]; oral 0.1 mg/kg, Day 3): 0.24±0.00 mm
atopic dermatitis score ([2]; oral 0.1 mg/kg, Day 5): 1.33±0.21
ear thickness ([2]; oral 0.1 mg/kg, Day 5): 0.26±0.00 mm
atopic dermatitis score ([2]; oral 0.1 mg/kg, Day 7): 2.17±0.17
ear thickness ([2]; oral 0.1 mg/kg, Day 7): 0.26±0.00 mm
atopic dermatitis score ([2]; oral 0.1 mg/kg, Day 8): 2.50±0.22
ear thickness ([2]; oral 0.1 mg/kg, Day 8): 0.27±0.00 mm
atopic dermatitis score ([2]; oral 0.1 mg/kg, Day 9): 3.00±0.26
ear thickness ([2]; oral 0.1 mg/kg, Day 9): 0.28±0.00 mm
atopic dermatitis score ([2]; oral 0.1 mg/kg, Day 10): 3.50±0.22
ear thickness ([2]; oral 0.1 mg/kg, Day 10): 0.29±0.00 mm
atopic dermatitis score ([2]; oral 0.1 mg/kg, Day 11): 3.67±0.21
ear thickness ([2]; oral 0.1 mg/kg, Day 11): 0.30±0.00 mm
atopic dermatitis score ([2]; oral 0.1 mg/kg, Day 12): 3.33±0.21
ear thickness ([2]; oral 0.1 mg/kg, Day 12): 0.30±0.00 mm
atopic dermatitis score ([2]; oral 0.1 mg/kg, Day 13): 3.00±0.00
ear thickness ([2]; oral 0.1 mg/kg, Day 13): 0.30±0.00 mm
atopic dermatitis score ([2]; oral 0.1 mg/kg, Day 14): 2.67±0.21
ear thickness ([2]; oral 0.1 mg/kg, Day 14): 0.29±0.00 mm
atopic dermatitis score ([2]; oral 1 mg/kg, Day 1): 0.00±0.00
ear thickness ([2]; oral 1 mg/kg, Day 1): 0.20±0.00 mm
atopic dermatitis score ([2]; oral 1 mg/kg, Day 3): 0.50±0.22
ear thickness ([2]; oral 1 mg/kg, Day 3): 0.23±0.00 mm
atopic dermatitis score ([2]; oral 1 mg/kg, Day 5): 1.17±0.17
ear thickness ([2]; oral 1 mg/kg, Day 5): 0.24±0.00 mm
atopic dermatitis score ([2]; oral 1 mg/kg, Day 7): 1.67±0.21
ear thickness ([2]; oral 1 mg/kg, Day 7): 0.26±0.00 mm
atopic dermatitis score ([2]; oral 1 mg/kg, Day 8): 2.17±0.17
ear thickness ([2]; oral 1 mg/kg, Day 8): 0.27±0.00 mm
atopic dermatitis score ([2]; oral 1 mg/kg, Day 9): 2.83±0.17
ear thickness ([2]; oral 1 mg/kg, Day 9): 0.28±0.00 mm
atopic dermatitis score ([2]; oral 1 mg/kg, Day 10): 3.00±0.00
ear thickness ([2]; oral 1 mg/kg, Day 10): 0.28±0.00 mm
atopic dermatitis score ([2]; oral 1 mg/kg, Day 11): 3.17±0.17
ear thickness ([2]; oral 1 mg/kg, Day 11): 0.28±0.00 mm
atopic dermatitis score ([2]; oral 1 mg/kg, Day 12): 2.67±0.21
ear thickness ([2]; oral 1 mg/kg, Day 12): 0.27±0.00 mm
atopic dermatitis score ([2]; oral 1 mg/kg, Day 13): 2.50±0.22
ear thickness ([2]; oral 1 mg/kg, Day 13): 0.27±0.00 mm
atopic dermatitis score ([2]; oral 1 mg/kg, Day 14): 2.00±0.00
ear thickness ([2]; oral 1 mg/kg, Day 14): 0.27±0.00 mm
atopic dermatitis score ([2]; oral 10 mg/kg, Day 1): 0.00±0.00
ear thickness ([2]; oral 10 mg/kg, Day 1): 0.20±0.00 mm
atopic dermatitis score ([2]; oral 10 mg/kg, Day 3): 0.67±0.21
ear thickness ([2]; oral 10 mg/kg, Day 3): 0.23±0.00 mm
atopic dermatitis score ([2]; oral 10 mg/kg, Day 5): 1.00±0.00
ear thickness ([2]; oral 10 mg/kg, Day 5): 0.25±0.00 mm
atopic dermatitis score ([2]; oral 10 mg/kg, Day 7): 2.00±0.00
ear thickness ([2]; oral 10 mg/kg, Day 7): 0.26±0.00 mm
atopic dermatitis score ([2]; oral 10 mg/kg, Day 8): 2.50±0.22
ear thickness ([2]; oral 10 mg/kg, Day 8): 0.27±0.00 mm
atopic dermatitis score ([2]; oral 10 mg/kg, Day 9): 2.83±0.17
ear thickness ([2]; oral 10 mg/kg, Day 9): 0.27±0.00 mm
atopic dermatitis score ([2]; oral 10 mg/kg, Day 10): 2.67±0.42
ear thickness ([2]; oral 10 mg/kg, Day 10): 0.27±0.00 mm
atopic dermatitis score ([2]; oral 10 mg/kg, Day 11): 3.00±0.26
ear thickness ([2]; oral 10 mg/kg, Day 11): 0.27±0.00 mm
atopic dermatitis score ([2]; oral 10 mg/kg, Day 12): 2.33±0.33
ear thickness ([2]; oral 10 mg/kg, Day 12): 0.25±0.00 mm
atopic dermatitis score ([2]; oral 10 mg/kg, Day 13): 1.67±0.21
ear thickness ([2]; oral 10 mg/kg, Day 13): 0.25±0.00 mm
atopic dermatitis score ([2]; oral 10 mg/kg, Day 14): 1.50±0.22
ear thickness ([2]; oral 10 mg/kg, Day 14): 0.24±0.01 mm
IgE ([2]; oral 0.1 mg/kg): 239.26 ± 48.93 ng/mL
IgE ([2]; oral 1 mg/kg): 167.90 ± 21.03 ng/mL
IgE ([2]; oral 10 mg/kg): 145.68 ± 23.19 ng/mL
